Structures can show the parent of a compound that is named as a salt. Where two headings read alike, the source gives them in different places.
System: Staphylococcus haemolyticus CNCM I-4170
Assay: Protocol A: in-vitro malodor inhibition (free thiol groups from Cys-Gly precursor, DTNB absorbance at 412 nm)
Assay type: cell-based
Details: for inhibition at 0.0012 % / inhibition at 0.0025 % / inhibition at 0.006 % / inhibition at 0.0125 % / inhibition at 0.025 % / inhibition at 0.05 % / inhibition at 0.005 % / inhibition at 0.1 % / inhibition at 0.0006 %: Staphylococcus haemolyticus, CNCMI4170, read-out: Ingredient Malodor Inhibition Value (%); for inhibition at 0.0006 %: 0.0006 w/v % in medium
Excerpt: Further details of such a screening and % inhibition measurement and definition are described further on in this application. The precursor used, which may also be in the form of a human sweat sample, typically generates malodorant sulfur compounds when acted upon by the Staphylococcus haemolyticus cells, or by a β-lyase present in such cells. The malodor inhibition coefficient, as defined herein, reflects the % of reduction in free SH groups generated in the above-mentioned medium by the enzymatic activity of the bacterial cells when in presence of the MOC ingredient or MOC composition in question, as compared to the same measurement in their absence. […] Alternatively, the bacterial cells can be replaced by a β-lyase present in said cells. […] Detection of enzymatic activity inhibition is measured via the sulfur groups, namely thiol groups, freed from the precursor bacterial transformation, by comparison with the reference experiment in the absence of the respective MOC ingredient, said sulfur groups being detected by interaction with DTNB, a known chemical detector system for thiols. The reaction can be monitored by absorbance reading at 412 nm. The procedure can be performed indifferently with either a purified or semi-purified enzyme or intact bacterial cells, as in the case described here. Malodor inhibition coefficient is measured as a function of the percentage of free thiol groups in the medium, over time, by an absorbance method, and reflects the reduction in malodor obtained in the presence of the MOC ingredients and compositions. […] At the end of the growth phase, the bacterial cells were harvested by centrifugation at 5000 rpm for 15 min. The cell pellet was then washed with 0.1 volumes of sterile potassium phosphate buffer 0.1 M, pH 7.5. […] The precursor was used at 0.17 mM final concentration. • Detection reagent DTNB • DTNB (5,5′-Dithio-bis-(2-nitrobenzoic acid; […]

[1] = Table 2, 0.0012 w/v % in medium
[2] = Table 2, 0.0025 w/v % in medium
[3] = Table 2, 0.0125 w/v % in medium

Compound | inhibition at 0.0012 % (0.0012 w/v % in medium) [%] | inhibition at 0.0025 % (0.0025 w/v % in medium) [%] | inhibition at 0.006 % (0.006 w/v % in medium) [%] | inhibition at 0.0012 % [1] [%] | inhibition at 0.0025 % [2] [%] | inhibition at 0.005 % (Table 2, 0.005 w/v % in medium) [%] | inhibition at 0.0125 % [3] [%] | further results
C[C@H]1[C@@H]2CC(C[C@@]13C=CC(=O)CC3)C2(C)C (single isomer, unassigned; (+)) |  |  |  |  |  |  |  | Ingredient Malodor Inhibition Value (%) (0.0012 w/v % in medium): 0.00%; Ingredient Malodor Inhibition Value (%) (0.0025 w/v % in medium): 14.02%; Ingredient Malodor Inhibition Value (%) (0.006 w/v % in medium): 26.00%; Ingredient Malodor Inhibition Value (%) (0.0125 w/v % in medium): 72.64%; Ingredient Malodor Inhibition Value (%) (0.025 w/v % in medium): 75.94%; Ingredient Malodor Inhibition Value (%) (0.05 w/v % in medium): 75.68%
CC1=CC[C@H](C(C)CC=O)CC1 (single isomer, unassigned; (+)) [(+)-(4R)-1-P-Menthene-9-carbaldehyde] |  |  |  |  |  |  |  | Ingredient Malodor Inhibition Value (%) [1]: 0.00%; Ingredient Malodor Inhibition Value (%) [2]: 3.44%; Ingredient Malodor Inhibition Value (%) (Table 2, 0.005 w/v % in medium): 34.61%; Ingredient Malodor Inhibition Value (%) [3]: 81.68%; Ingredient Malodor Inhibition Value (%) (Table 2, 0.025 w/v % in medium): 97.82%
CC1=CC[C@H](/C=C/C(C)(C)C(C)O)C1(C)C (single isomer, unassigned; (-)) [(-)-(1′R,E)-3,3-Dimethyl-5-(2′,2′,3′-trimethyl-3′-cyclopenten-1′-yl)-4-penten-2-ol] |  |  |  |  |  |  |  | Ingredient Malodor Inhibition Value (%) (0.0012 w/v % in medium): 0.00%; Ingredient Malodor Inhibition Value (%) (0.0025 w/v % in medium): 27.39%; Ingredient Malodor Inhibition Value (%) (0.006 w/v % in medium): 75.11%; Ingredient Malodor Inhibition Value (%) (0.0125 w/v % in medium): 76.95%; Ingredient Malodor Inhibition Value (%) (0.025 w/v % in medium): 76.65%
O=C1CCCCCCCCCCC(=O)OCCO1 [1,4-Dioxacyclohexadecane-5,16-dione] | 0 | 0 | 0 |  |  |  |  | inhibition at 0.0125 % (0.0125 w/v % in medium): 28.2%; inhibition at 0.025 % (0.025 w/v % in medium): 37.3%; inhibition at 0.05 % (0.05 w/v % in medium): 36.5%
CCCCCCCCCCC=CC=O [2-Tridecenal (ethyl citrate solution), 2-Tridecenal] |  |  |  | 29 | 40.2 | 50 | 81 | 
CC(CCO)CC(C)(C)C (centres unmarked) [3,5,5-Trimethyl-1-hexanol] | 0 | 0 | 0 |  |  |  |  | inhibition at 0.0125 % (0.0125 w/v % in medium): 0%; inhibition at 0.025 % (0.025 w/v % in medium): 35%; inhibition at 0.05 % (0.05 w/v % in medium): 58.3%; inhibition at 0.1 % (0.1 w/v % in medium): 62.9%
CC(C)CCCC(C)CC=O (centres unmarked) [3,7-Dimethyloctanal] |  |  |  | 0 | 0 | 18.1 | 66.7 | 
CC(C)c1cccc(C(C)CC=O)c1 (centres unmarked) [3-(3-Isopropyl-1-phenyl)butanal] |  |  |  |  |  |  |  | Ingredient Malodor Inhibition Value (%) [1]: 16.63%; Ingredient Malodor Inhibition Value (%) [2]: 30.10%; Ingredient Malodor Inhibition Value (%) (Table 2, 0.005 w/v % in medium): 73.81%; Ingredient Malodor Inhibition Value (%) [3]: 95.51%; Ingredient Malodor Inhibition Value (%) (Table 2, 0.025 w/v % in medium): 99.45%; Ingredient Malodor Inhibition Value (%) (Table 2, 0.05 w/v % in medium): 97.34%
CC1(C)C2CC=C(CCC=O)C1C2 (centres unmarked) [3-(6,6-Dimethyl-bicyclo[3.1.1]hept-2-en-2-yl)propanal] |  |  |  | 0 | 4.58 | 82.9 | 96.7 | inhibition at 0.025 % (Table 2, 0.025 w/v % in medium): 100%; inhibition at 0.05 % (Table 2, 0.05 w/v % in medium): 96.3%
c1nc2c(o1)CCCCCCCCCC2 [4,5,6,7,8,9,10,11,12,13-Decahydrocyclododeca-1,3-oxazole] |  |  |  | 0 | 0 | 52.2 |  | 
CC(C)(C)C1CCC(O)CC1 (centres unmarked) [4-tert-Butyl-1-cyclohexanol] | 0 | 0 | 0 |  |  |  |  | inhibition at 0.0125 % (0.0125 w/v % in medium): 0%; inhibition at 0.025 % (0.025 w/v % in medium): 59.8%; inhibition at 0.05 % (0.05 w/v % in medium): 89.1%
CC1=CC2CC(C=O)C1CC2C(C)C (centres unmarked) [8-Isopropyl-6-methyl-bicyclo[2.2.2]oct-5-ene-2-carbaldehyde] |  |  |  | 18.9 | 28.3 | 76.9 | 84.5 | inhibition at 0.025 % (Table 2, 0.025 w/v % in medium): 82.9%; inhibition at 0.05 % (Table 2, 0.05 w/v % in medium): 88.2%
CC=CCCCCCCCC=O [9-Undecenal] |  |  |  | 0 | 0 | 62.4 | 89 | inhibition at 0.025 % (Table 2, 0.025 w/v % in medium): 81.8%; inhibition at 0.05 % (Table 2, 0.05 w/v % in medium): 77.9%
C=CCCCCCCCCC=O [10-Undecenal] |  |  |  | 3 |  | 49.2 |  | 
CC/C(=C\C[C@H]1CC=C(C)C1(C)C)CO [(-)-(2E)-2-Ethyl-4-[(1R)-2,2,3-trimethyl-3-cyclopenten-1-yl]-2-buten-1-ol] | 0 | 21.2 | 70.8 |  |  |  |  | inhibition at 0.0125 % (0.0125 w/v % in medium): 80%; inhibition at 0.025 % (0.025 w/v % in medium): 80.3%
CCCCCCC/C=C/C=O [(E)-2-Decenal] |  |  |  | 22 | 28.2 | 66.6 | 90.1 | inhibition at 0.025 % (Table 2, 0.025 w/v % in medium): 100%
CCCCCCCCC/C=C/C=O [(E)-2-Dodecenal] |  |  |  | 29.7 | 55.4 | 86.9 | 94 | inhibition at 0.0006 % (Table 2): 10.4%
CCCCC/C=C/CCC=O [(E)-4-Decenal] |  |  |  | 22 | 28.2 | 66.6 | 90.1 | inhibition at 0.025 % (Table 2, 0.025 w/v % in medium): 100%
CCCCCCC/C=C\CCC=O [(Z)-4-Dodecenal] |  |  |  | 0 | 6.96 | 76.5 |  | inhibition at 0.0006 % (Table 2): 0%
CC1(C)CCCC2(C)C1CCC1(C)OCCC12 (centres unmarked) [Ambrox ®, 8,12-epoxy-13,14,15,16-tetranorlabdane] |  |  |  |  |  |  |  | Ingredient Malodor Inhibition Value (%) (0.0012 w/v % in medium): 0.00%; Ingredient Malodor Inhibition Value (%) (0.0025 w/v % in medium): 0.00%; Ingredient Malodor Inhibition Value (%) (0.05 w/v % in medium): 18.23%; Ingredient Malodor Inhibition Value (%) (0.1 w/v % in medium): 38.00%
CC(C)(C)c1ccc(CCC=O)cc1 [Bourgeonal, 3-(4-tert-butylphenyl)propanal] | 4.15 | 7.06 | 42.6 |  |  |  |  | 
CC1C(C)(C)C2=C(C(=O)CCC2)C1(C)C (centres unmarked) [Cashmeran, 1,2,3,5,6,7-hexahydro-1,1,2,3,3-pentamethyl-4-indenone] | 0 | 0 | 19.2 |  |  |  |  | inhibition at 0.0125 % (0.0125 w/v % in medium): 54%; inhibition at 0.025 % (0.025 w/v % in medium): 71.5%; inhibition at 0.05 % (0.05 w/v % in medium): 70.1%; inhibition at 0.1 % (0.1 w/v % in medium): 73.2%
CC(C)(O)CCC1CCCCC1 [Coranol ®, 4-cyclohexyl-2-methyl-2-butanol] | 0 | 0 | 10.8 |  |  |  |  | inhibition at 0.0125 % (0.0125 w/v % in medium): 49.8%; inhibition at 0.025 % (0.025 w/v % in medium): 77.7%; inhibition at 0.1 % (0.1 w/v % in medium): 77.8%
CC(C=O)Cc1ccc(C(C)(C)C)cc1 (centres unmarked) [Lilial ®, 3-(4-tert-butylphenyl)-2-methylpropanal] | 0.9 | 9.47 | 37.5 |  |  |  |  | inhibition at 0.0125 % (0.0125 w/v % in medium): 81%; inhibition at 0.025 % (0.025 w/v % in medium): 90%
C=CC(C)(O)CCC=C(C)CCC=C(C)C (centres unmarked) [Nerolidol] | 0 | 6.52 | 53.5 |  |  |  |  | inhibition at 0.0125 % (0.0125 w/v % in medium): 56.9%; inhibition at 0.025 % (0.025 w/v % in medium): 68.5%; inhibition at 0.05 % (0.05 w/v % in medium): 66.8%
CCCCCCCCC=O [Nonanal] |  |  |  | 5.26 | 5.08 | 40.2 | 80.4 | inhibition at 0.025 % (Table 2, 0.025 w/v % in medium): 94.8%; inhibition at 0.05 % (Table 2, 0.05 w/v % in medium): 97.8%
CCC(C)CCCC(C)(C)O (centres unmarked) [Tetrahydromyrcenol] |  |  |  |  |  |  |  | Ingredient Malodor Inhibition Value (%) (0.0012 w/v % in medium): 0.00%; Ingredient Malodor Inhibition Value (%) (0.0025 w/v % in medium): 0.00%; Ingredient Malodor Inhibition Value (%) (0.006 w/v % in medium): 0.00%; Ingredient Malodor Inhibition Value (%) (0.0125 w/v % in medium): 0.00%; Ingredient Malodor Inhibition Value (%) (0.025 w/v % in medium): 41.38%; Ingredient Malodor Inhibition Value (%) (0.05 w/v % in medium): 72.56%; Ingredient Malodor Inhibition Value (%) (0.1 w/v % in medium): 66.63%

Reference: US20150297482A1, “MALODOR COUNTERACTING COMPOSITIONS AND METHOD FOR THEIR USE TO COUNTERACT SWEAT MALODOR” (FIRMENICH SA, priority 2009, published 2015)
